According to PMC11359040, “Long-Circulating and Brain-Targeted Liposomes Loaded with Isoliquiritigenin: Formation, Characterization, Pharmacokinetics, and Distribution” (Pharmaceutics, 2024):

Assay: Concentration of free isoliquiritigenin in saturated aqueous phase by HPLC
Type: physicochemical
Experimental: A total of 100 μL of ISL-LP solution was added to 900 μL of methanol and then subjected to vortex shaking for 10 min to disrupt the liposome structure. Following centrifugation at a speed of 13,000 rpm and a temperature of 4 °C for 10 min, 100 μL of the supernatant was diluted with methanol and then filtered through 0.22 μm membranes. Subsequently, 15 μL of the solution was injected into a high-performance liquid chromatography system (HPLC, Agilent 1100, Santa Clara, CA, USA) to detect the concentration of ISL according to the method previously reported. Before these steps, we quantified the concentration of free isoliquiritigenin in the saturated aqueous phase by HPLC. […] The drug loading (DL) and EE of ISL-LP were calculated according to Equations (1) and (2):EE (%) = (Wloaded/Wadded) × 100%(1) DL (%) = (Wloaded/Wtotal) × 100%(2) where Wloaded represents the amount of ISL loaded, Wadded denotes the weight of ISL added, and Wtotal signifies the weight of liposomes.

concentration of free isoliquiritigenin in the saturated aqueous phase: below the detection limit
Structure (SMILES): O=C(/C=C/c1ccc(O)cc1)c1ccc(O)cc1O [isoliquiritigenin, Isoliquiritigenin]
